From publication PMC8566257 (Plant Physiology, 2021)

What was measured:
Assay in all cases: pull-down of COI1-flag on MBP-JAZ, immunoblot
Assay type in all cases: binding
Conditions in all cases: 0.5 μM COR; inducer of complex (agonist)
[1] = target: T1, AtCOI1-flag/AtJAZ3-MBP with ASK1 (Arabidopsis thaliana, UniProt O04197+Q9LVI4)
T1 sequence (O04197 1-592): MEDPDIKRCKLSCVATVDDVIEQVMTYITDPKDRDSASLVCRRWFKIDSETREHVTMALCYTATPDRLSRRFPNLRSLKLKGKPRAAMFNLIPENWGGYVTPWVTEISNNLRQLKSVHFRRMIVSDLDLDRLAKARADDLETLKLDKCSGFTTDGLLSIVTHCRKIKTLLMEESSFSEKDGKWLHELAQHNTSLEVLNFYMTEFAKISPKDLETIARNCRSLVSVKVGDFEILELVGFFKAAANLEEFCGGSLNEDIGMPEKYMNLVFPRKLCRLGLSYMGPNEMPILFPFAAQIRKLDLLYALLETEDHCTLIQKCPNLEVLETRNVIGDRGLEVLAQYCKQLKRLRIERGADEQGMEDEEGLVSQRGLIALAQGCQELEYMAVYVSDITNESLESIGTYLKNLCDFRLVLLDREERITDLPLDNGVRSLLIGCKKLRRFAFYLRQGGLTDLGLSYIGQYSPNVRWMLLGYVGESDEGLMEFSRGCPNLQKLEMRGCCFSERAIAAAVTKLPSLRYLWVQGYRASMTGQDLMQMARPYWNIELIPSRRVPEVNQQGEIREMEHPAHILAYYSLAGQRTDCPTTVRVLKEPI
T1 sequence (Q9LVI4 1-352): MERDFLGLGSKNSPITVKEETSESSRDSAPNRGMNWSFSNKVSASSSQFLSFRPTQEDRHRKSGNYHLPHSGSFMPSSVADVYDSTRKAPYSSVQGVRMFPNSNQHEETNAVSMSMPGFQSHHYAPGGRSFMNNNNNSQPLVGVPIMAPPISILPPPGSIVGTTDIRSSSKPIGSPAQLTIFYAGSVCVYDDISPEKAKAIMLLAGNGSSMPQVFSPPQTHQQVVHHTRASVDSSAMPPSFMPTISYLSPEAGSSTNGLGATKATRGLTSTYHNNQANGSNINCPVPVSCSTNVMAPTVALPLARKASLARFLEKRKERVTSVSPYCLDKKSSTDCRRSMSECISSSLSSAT
T1 sequence (Q39255 1-160 partner): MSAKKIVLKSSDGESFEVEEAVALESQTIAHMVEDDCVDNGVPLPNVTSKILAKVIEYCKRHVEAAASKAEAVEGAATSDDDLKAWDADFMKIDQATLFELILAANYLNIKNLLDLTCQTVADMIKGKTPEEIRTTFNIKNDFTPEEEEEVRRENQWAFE

[2] = target: T2, AtCOI1-flag/AtJAZ1-MBP with ASK1 (Arabidopsis thaliana, UniProt O04197+Q9LMA8)
T2 sequence (O04197 1-592): T1 sequence (O04197 1-592)
T2 sequence (Q9LMA8 1-253): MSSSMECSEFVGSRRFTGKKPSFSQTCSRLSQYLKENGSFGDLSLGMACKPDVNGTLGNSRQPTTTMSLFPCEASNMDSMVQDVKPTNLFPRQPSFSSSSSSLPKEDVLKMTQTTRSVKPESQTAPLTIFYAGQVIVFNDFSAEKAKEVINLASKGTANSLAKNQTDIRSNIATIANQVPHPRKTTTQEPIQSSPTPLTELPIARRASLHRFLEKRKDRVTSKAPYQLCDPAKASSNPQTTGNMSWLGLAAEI
T2 sequence (Q39255 1-160 partner): T1 sequence (Q39255 1-160 partner)

[3] = target: T3, AtCOI1-flag/AtJAZ9-MBP with ASK1 (Arabidopsis thaliana, UniProt O04197+Q8W4J8)
T3 sequence (O04197 1-592): T1 sequence (O04197 1-592)
T3 sequence (Q8W4J8 1-267): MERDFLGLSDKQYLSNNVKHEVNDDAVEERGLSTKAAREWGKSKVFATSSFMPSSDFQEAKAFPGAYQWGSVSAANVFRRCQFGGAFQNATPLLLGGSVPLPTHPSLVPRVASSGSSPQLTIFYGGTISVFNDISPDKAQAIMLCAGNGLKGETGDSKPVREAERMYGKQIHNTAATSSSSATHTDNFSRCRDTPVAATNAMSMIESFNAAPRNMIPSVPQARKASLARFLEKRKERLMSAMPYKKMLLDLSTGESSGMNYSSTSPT
T3 sequence (Q39255 1-160 partner): T1 sequence (Q39255 1-160 partner)

[4] = target: T4, AtCOI1-flag/AtJAZ2-MBP with ASK1 (Arabidopsis thaliana, UniProt O04197+Q9S7M2)
T4 sequence (O04197 1-592): T1 sequence (O04197 1-592)
T4 sequence (Q9S7M2 1-249): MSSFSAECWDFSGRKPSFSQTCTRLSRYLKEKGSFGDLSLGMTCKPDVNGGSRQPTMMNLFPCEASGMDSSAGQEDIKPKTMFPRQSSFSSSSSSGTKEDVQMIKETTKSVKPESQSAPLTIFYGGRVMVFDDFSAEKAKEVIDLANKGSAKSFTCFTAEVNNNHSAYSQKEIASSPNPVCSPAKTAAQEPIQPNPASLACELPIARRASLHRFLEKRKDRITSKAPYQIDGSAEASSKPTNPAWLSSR
T4 sequence (Q39255 1-160 partner): T1 sequence (Q39255 1-160 partner)

CC[C@H]1C=C(C(=O)N[C@@]2(C(=O)O)C[C@@H]2CC)[C@H]2CCC(=O)[C@H]2C1 [COR]
pull-down of COI1-flag on MBP-JAZ, immunoblot [1]: COR promotes the interaction between the purified COI1 and several recombinant JAZ-MBP proteins | pull-down of COI1-flag on MBP-JAZ, immunoblot [2]: COR promotes the interaction between the purified COI1 and several recombinant JAZ-MBP proteins | pull-down of COI1-flag on MBP-JAZ, immunoblot [3]: COR promotes the interaction between the purified COI1 and several recombinant JAZ-MBP proteins | pull-down of COI1-flag on MBP-JAZ, immunoblot [4]: COR promotes the interaction between the purified COI1 and several recombinant JAZ-MBP proteins
